Measured values taken from patent US12312370B2, “Immunoproteasome inhibitors” (Principia Biopharma Inc., priority 2017, dated 2025).

Assays:
[1] = target: immunoproteasome LMP7/B5i subunit (Homo sapiens, UniProt P28062); assay: Caliper-based proteasome enzymatic activity assay, LMP7; assay type: biochemical; conditions: human recombinant immunoproteasome 0.3 nM, FAM-labeled peptide substrate 1 μM, rt 3 h; read-out: LMP7 subunit IC50
[2] = target: constitutive proteasome β5c unit (Homo sapiens, UniProt P28074); assay: Caliper-based proteasome enzymatic activity assay, β5c; assay type: biochemical; conditions: human recombinant constitutive proteasome 0.3 nM, FAM-labeled peptide substrate 1 μM, rt 3 h; read-out: β5c subunit IC50

## CC(C)(C=C(C#N)C(=O)N1C[C@H](F)[C@H](OC(=O)N[C@@H](Cc2ccccc2)B(O)O)C1)N1CCC(F)(F)C1 [Example 111, ((R)-1-(((((3R,4S)-1-(2-cyano-4-(3,3-difluoropyrrolidin-1-yl)-4-methylpent-2-enoyl)-4-fluoropyrrolidin-3-yl)oxy)carbonyl)amino)-2-phenylethyl)boronic acid]
[1]
  IC50: 1.9 nM
[2]
  IC50: 140 nM

## CC(C)(C=C(C#N)C(=O)N1CCC[C@H](OC(=O)N[C@@H](Cc2ccccc2)B(O)O)C1)N1CCN2C(=O)OC[C@H]2C1 [Example 98, ((R)-1-(((((S)-1-(2-cyano-4-methyl-4-((R)-3-oxotetrahydro-3H-oxazolo[3,4-a]pyrazin-2(1H)-yl)pent-2-enoyl)piperidin-3-yl)oxy)carbonyl)amino)-2-phenylethyl)boronic acid]
[1]
  IC50: 5.6 nM
[2]
  IC50: 2500 nM

## COC(=O)N1CCN(C(C)(C)C=C(C#N)C(=O)N2CC[C@H](COC(=O)N[C@@H](Cc3ccccc3)B(O)O)C2)CC1 [Example 96, ((R)-1-(((((S)-1-(2-cyano-4-(4-(methoxycarbonyl)piperazin-1-yl)-4-methylpent-2-enoyl)pyrrolidin-3-yl)methoxy)carbonyl)amino)-2-phenylethyl)boronic acid]
[1]
  IC50: 8.7 nM
[2]
  IC50: 1620 nM

## CC(C)(C=C(C#N)C(=O)N1CCC[C@@H]1CNC(=O)N[C@@H](Cc1coc2ccccc12)B(O)O)N1CCC(F)(F)CC1 [Example 49, ((R)-2-(benzofuran-3-yl)-1-(3-(((R)-1-(2-cyano-4-(4,4-difluoropiperidin-1-yl)-4-methylpent-2-enoyl)pyrrolidin-2-yl)methyl)ureido)ethyl)boronic acid]
[1]
  IC50: 5.3 nM
[2]
  IC50: 1810 nM

## CC(C)C=C(C#N)C(=O)NCCCC[C@H](NC(=O)c1cc(Cl)ccc1Cl)C(=O)N[C@@H](CC(C)C)B(O)O [Example 3, ((R)-1-((S)-6-(2-cyano-4-methylpent-2-enamido)-2-(2,5-dichlorobenzamido)hexanamido)-3-methylbutyl)boronic acid]
[1]
  IC50: 29.6 nM
[2]
  IC50: 8.5 nM

## C=CC(=O)N1CC[C@@H]1COC(=O)N[C@@H](Cc1coc2ccccc12)B(O)O [Example 62, ((R)-1-(((((R)-1-acryloylazetidin-2-yl)methoxy)carbonyl)amino)-2-(benzofuran-3-yl)ethyl)boronic acid]
[1]
  IC50: 2.3 nM
[2]
  IC50: 126 nM

## CC(C)(C)/C=C(\C#N)C(=O)N1CC[C@H](OC(=O)N[C@@H](Cc2ccccc2)B(O)O)C1 [Example 87, ((R)-1-(((((S)-1-((E)-2-cyano-4,4-dimethylpent-2-enoyl)pyrrolidin-3-yl)oxy)carbonyl)amino)-2-phenylethyl)boronic acid]
[1]
  IC50: 1.9 nM
[2]
  IC50: 574 nM

## CC(C)(C=C(C#N)C(=O)N1CCC[C@@H](NC(=O)N[C@@H](Cc2ccccc2)B(O)O)C1)N1CCC(F)(F)C1 [Example 101, ((R)-1-(3-((R)-1-(2-cyano-4-(3,3-difluoropyrrolidin-1-yl)-4-methylpent-2-enoyl)piperidin-3-yl)ureido)-2-phenylethyl)boronic acid]
[1]
  IC50: 145 nM
[2]
  IC50: 3920 nM

## C[C@@H]1CN(C(C)(C)C=C(C#N)C(=O)N2CCCC[C@@H](OC(=O)N[C@@H](Cc3ccccc3)B(O)O)C2)C[C@H](C)O1 [Example 127, ((R)-1-(((((R)-1-(2-cyano-4-((2S,6R)-2,6-dimethylmorpholino)-4-methylpent-2-enoyl)azepan-3-yl)oxy)carbonyl)amino)-2-phenylethyl)boronic acid]
[1]
  IC50: 2.4 nM
[2]
  IC50: 2420 nM

## COC(=O)N1CCN(C(C)(C)C=C(C#N)C(=O)N2CCC[C@H](OC(=O)N[C@@H](CC3=CCCC3)B(O)O)C2)CC1 [Example 120, ((R)-1-(((((S)-1-(2-cyano-4-(4-(methoxycarbonyl)piperazin-1-yl)-4-methylpent-2-enoyl)piperidin-3-yl)oxy)carbonyl)amino)-2-(cyclopent-1-en-1-yl)ethyl)boronic acid]
[1]
  IC50: 11.6 nM
[2]
  IC50: > 5000 nM

## C[C@H]1CN(C(C)(C)C=C(C#N)C(=O)N2CCCC[C@@H](OC(=O)N[C@@H](Cc3ccccc3)B(O)O)C2)C[C@H](C)O1 [Example 128, ((R)-1-(((((R)-1-(2-cyano-4-((2S,6S)-2,6-dimethylmorpholino)-4-methylpent-2-enoyl)azepan-3-yl)oxy)carbonyl)amino)-2-phenylethyl)boronic acid]
[1]
  IC50: 4.7 nM
[2]
  IC50: 1350 nM

## CC(C)(C=C(C#N)C(=O)N1CC[C@H](COC(=O)N[C@@H](Cc2ccccc2)B(O)O)C1)N1CCOCC1 [Example 99, ((R)-1-(((((S)-1-(2-cyano-4-methyl-4-morpholinopent-2-enoyl)pyrrolidin-3-yl)methoxy)carbonyl)amino)-2-phenylethyl)boronic acid]
[1]
  IC50: 19.3 nM
[2]
  IC50: 3760 nM

## C=CC(=O)N1CCC[C@H](OC(=O)N[C@@H](Cc2ccc(C(F)(F)F)cc2)B(O)O)C1 [Example 66, ((R)-1-(((((S)-1-acryloylpiperidin-3-yl)oxy)carbonyl)amino)-2-(4-(trifluoromethyl)phenyl)ethyl)boronic acid]
[1]
  IC50: 148 nM
[2]
  IC50: > 5000 nM

## CC(C)(C=C(C#N)C(=O)N1C[C@@H](F)[C@@H](OC(=O)N[C@@H](Cc2ccccc2)B(O)O)C1)N1CCC(F)(F)C1 [Example 125, ((R)-1-(((((3S,4R)-1-(2-cyano-4-(3,3-difluoropyrrolidin-1-yl)-4-methylpent-2-enoyl)-4-fluoropyrrolidin-3-yl)oxy)carbonyl)amino)-2-phenylethyl)boronic acid]
[1]
  IC50: 3.7 nM
[2]
  IC50: 810 nM

## CC(C)(C=C(C#N)C(=O)N1CC[C@@H]1COC(=O)N[C@@H](Cc1ccccc1)B(O)O)N1CCC(F)(F)C1 [Example 54, ((R)-1-(((((R)-1-(2-cyano-4-(3,3-difluoropyrrolidin-1-yl)-4-methylpent-2-enoyl)azetidin-2-yl)methoxy)carbonyl)amino)-2-phenylethyl)boronic acid]
[1]
  IC50: 2.7 nM
[2]
  IC50: 504 nM

## CC(C)C=C(C#N)C(=O)NCCCC[C@H](NC(=O)[C@@H](NC(=O)C(C)C)[C@@H](C)O)C(=O)N[C@@H](Cc1ccccc1)B(O)O [Example 10, ((R)-1-((S)-6-(2-cyano-4-methylpent-2-enamido)-2-((2S,3R)-3-hydroxy-2-isobutyramidobutanamido)hexanamido)-2-phenylethyl)boronic acid]
[1]
  IC50: 6.6 nM
[2]
  IC50: 14.8 nM

## CN(C[C@H]1CCCCN1C(=O)C(C#N)=CC(C)(C)N1CCC(F)(F)C1)C(=O)N[C@@H](Cc1ccccc1)B(O)O [Example 64]
[1]
  IC50: > 5000 nM
[2]
  IC50: > 5000 nM

## CC1(C)CN(C(C)(C)C=C(C#N)C(=O)N2CCCC[C@@H](OC(=O)N[C@@H](Cc3ccccc3)B(O)O)C2)CCO1 [Example 136, ((R)-1-(((((R)-1-(2-cyano-4-(2,2-dimethylmorpholino)-4-methylpent-2-enoyl)azepan-3-yl)oxy)carbonyl)amino)-2-phenylethyl)boronic acid]
[1]
  IC50: 1.3 nM
[2]
  IC50: 1280 nM

## CC(C)(C=C(C#N)C(=O)N1CCC[C@H](COC(=O)N[C@@H](Cc2ccccc2)B(O)O)C1)N1CCC(F)(F)C1 [Example 53, ((R)-1-(((((S)-1-(2-cyano-4-(3,3-difluoropyrrolidin-1-yl)-4-methylpent-2-enoyl)piperidin-3-yl)methoxy)carbonyl)amino)-2-phenylethyl)boronic acid]
[1]
  IC50: 4.4 nM
[2]
  IC50: > 5000 nM

## CC(C)C=C(C#N)C(=O)N1CCC[C@@H]1COC[C@H](NCC(F)(F)F)C(=O)N[C@@H](CC(C)C)B(O)O [Example 28]
[1]
  IC50: 46 nM
[2]
  IC50: 294 nM

## CC(C)(C=C(C#N)C(=O)N1CC[C@H](NC(=O)N[C@@H](Cc2ccccc2)B(O)O)C1)N1CCC(F)(F)C1 [Example 100, ((R)-1-(3-((S)-1-(2-cyano-4-(3,3-difluoropyrrolidin-1-yl)-4-methylpent-2-enoyl)pyrrolidin-3-yl)ureido)-2-phenylethyl)boronic acid]
[1]
  IC50: 206 nM
[2]
  IC50: 3560 nM

## CC(C)(C=C(C#N)C(=O)N1CCCC[C@@H](OC(=O)N[C@@H](Cc2ccccc2)B(O)O)C1)N1CC2CC(C1)O2 [Example 134, ((1R)-1-(((((3R)-1-(4-(6-oxa-3-azabicyclo[3.1.1]heptan-3-yl)-2-cyano-4-methylpent-2-enoyl)azepan-3-yl)oxy)carbonyl)amino)-2-phenylethyl)boronic acid]
[1]
  IC50: 1.9 nM
[2]
  IC50: 1010 nM

## CC(C)(C=C(C#N)C(=O)N1C2CCC1(COC(=O)N[C@@H](Cc1ccccc1)B(O)O)CC2)N1CCOCC1 [Example 81]
[1]
  IC50: 1.8 nM
[2]
  IC50: 2220 nM

## CC(C)(C=C(C#N)C(=O)N1CCCC[C@@H](OC(=O)N[C@@H](Cc2ccc(F)cc2)B(O)O)C1)N1CCOCC1 [Example 137, ((R)-1-(((((R)-1-(2-cyano-4-methyl-4-morpholinopent-2-enoyl)azepan-3-yl)oxy)carbonyl)amino)-2-(4-fluorophenyl)ethyl)boronic acid]
[1]
  IC50: 1.9 nM
[2]
  IC50: 2080 nM

## CN1CCN(C(C)(C)C=C(C#N)C(=O)N2CCC[C@H](OC(=O)N[C@@H](Cc3ccccc3)B(O)O)C2)CC1 [Example 80, ((R)-1-(((((S)-1-(2-cyano-4-methyl-4-(4-methylpiperazin-1-yl)pent-2-enoyl)piperidin-3-yl)oxy)carbonyl)amino)-2-phenylethyl)boronic acid]
[1]
  IC50: 3.9 nM
[2]
  IC50: 1380 nM

## CC(C)(C=C(C#N)C(=O)N1CCCC[C@H](OC(=O)N[C@@H](Cc2ccccc2)B(O)O)C1)N1CCOCC1 (single isomer, unassigned) [Example 104]
[1]
  IC50: 2.4 nM
[2]
  IC50: > 5000 nM

## CC(C)(C=C(C#N)C(=O)N1CCO[C@@H](CC(=O)N[C@@H](Cc2ccccc2)B(O)O)C1)N1CCC(F)(F)C1 [Example 61, ((R)-1-(2-((S)-4-(2-cyano-4-(3,3-difluoropyrrolidin-1-yl)-4-methylpent-2-enoyl)morpholin-2-yl)acetamido)-2-phenylethyl)boronic acid]
[1]
  IC50: 11 nM
[2]
  IC50: 186 nM
